Test results taken from publication PMC4977651, “Molecular features of biguanides required for targeting of mitochondrial respiratory complex I and activation of AMP-kinase” (BMC Biology, 2016).
pIC50: −log10 of the molar value. “And” between values parts separate entries of the source, which are not always exact repeats. Equal values may be shown once. Read-outs that look alike come from different tables or passages of the source.

What was measured:
[1] = target: isolated bovine heart complex I (Bos taurus, UniProt P03887+P03898+P17694+P42026); assay: NADH:decylubiquinone oxidoreduction by isolated complex I; assay type: biochemical; conditions: for HillSlope (best fit value) / LogIC50 (best fit value): Prism fit; for HillSlope (best fit value): no std. error; for remaining activity at 50 µM: inhibitor 0.05 mM; for remaining activity at 100 µM: inhibitor 0.10 mM; for remaining activity at 500 µM: inhibitor 0.50 mM; for remaining activity at 1000 µM: inhibitor 1.00 mM; for remaining activity at 5000 µM: inhibitor 5.00 mM; for LogIC50 (best fit value): log of IC50 in mM; for remaining activity at 200 µM: inhibitor 0.20 mM; for remaining activity at 2000 µM: inhibitor 2.00 mM
Procedure: Complex I and mitochondrial membranes were prepared from Bos taurus (bovine) heart. Intact mitochondria were isolated from rat liver and mouse heart and liver. Membranes were prepared from mouse heart mitochondria by 5 s bursts of sonication at 4 °C and collected by centrifugation (75,000 × g, 1 h).
Assays were performed at 32 °C in a SpectraMax 96-well plate reader. NADH:decylubiquinone oxidoreduction by complex I at 0.5 μg mL^−1 was measured in 20 mM Tris-HCl (pH 7.2), 0.15 % soy bean asolectin (Avanti Polar Lipids), and 0.15 % 3-((3-cholamidopropyl)dimethylammonium)-1-propanesulfonate (CHAPS, Merck Chemicals Ltd), with 200 μM decylubiquinone and 200 μM NADH, and monitored using ε340–380(NADH) = 4.81 mM^−1 cm^−1 [23]. Catalysis was initiated by addition of NADH and maximal rates determined by linear regression. NADH:O2 oxidoreduction by membranes was measured similarly but using 5 μg mL^−1 membranes in 10 mM Tris-HCl (pH 7.4) and 250 mM sucrose using 200 μM NADH and supplemented with 0.15 mM horse heart cytochrome c (Sigma-Aldrich Ltd.). Succinate:O2 oxidoreduction was measured using 40 μg mL^−1 membranes in 5 mM succinate in 10 mM Tris-HCl (pH 7.4) as described previously. Control experiments included NaCl (to match the ionic strength) or DMSO, as appropriate.
Experimental values are reported as mean averages ± standard deviation (SD) of technical replicates for large sample sizes and mean averages ± standard error of the mean (SEM) of technical replicates for small sample sizes. Data were analyzed by the unpaired two-tailed Student’s t test. IC50 values were determined using the standard dose-effect relationship (activity (%) = 100 × IC50 / (IC50 + [inhibitor]^m) with the Hill Slope (m) set to unity for purified complex I) and are reported with 95 % confidence intervals.

[2] = tested on: 143B cells; assay: Membrane potential measurement by TMRM fluorescence; assay type: cell-based, human
Procedure: 143B cells were seeded at 5 × 10^5 cells per 10 cm^2 well in DMEM containing 10 % FBS. […] The detached cells from each well were incubated in PBS containing 25 pg/mL tetramethylrhodamine, methyl ester (TMRM) and 20 μg/mL Hoescht stain for 20 min at 37 °C then washed twice and re-suspended in 200 μL PBS. TMRM fluorescence was detected using a NucleoCounter® NC 3000 cytometer with excitation at 530 nm and emission at 575 nm, with the Hoescht stain used to check for consistent cell density between samples.

[3] = bovine heart purified mitochondrial complex I
[4] = bovine heart purified mitochondrial complex I, Prism log(inhibitor) vs. response fit, Bottom 0, Top 100, read-out: IC50 (best fit value)
[5] = bovine heart purified mitochondrial complex I, read-out: average % (rate, % of no-inhibitor control)

Sequence of isolated bovine heart complex I (P42026 38-216): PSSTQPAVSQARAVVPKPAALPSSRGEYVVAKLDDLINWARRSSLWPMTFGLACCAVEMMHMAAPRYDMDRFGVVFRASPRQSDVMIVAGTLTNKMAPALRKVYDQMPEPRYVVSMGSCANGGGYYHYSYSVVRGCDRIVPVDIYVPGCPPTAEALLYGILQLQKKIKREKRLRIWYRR
Sequence of isolated bovine heart complex I (P17694 34-463): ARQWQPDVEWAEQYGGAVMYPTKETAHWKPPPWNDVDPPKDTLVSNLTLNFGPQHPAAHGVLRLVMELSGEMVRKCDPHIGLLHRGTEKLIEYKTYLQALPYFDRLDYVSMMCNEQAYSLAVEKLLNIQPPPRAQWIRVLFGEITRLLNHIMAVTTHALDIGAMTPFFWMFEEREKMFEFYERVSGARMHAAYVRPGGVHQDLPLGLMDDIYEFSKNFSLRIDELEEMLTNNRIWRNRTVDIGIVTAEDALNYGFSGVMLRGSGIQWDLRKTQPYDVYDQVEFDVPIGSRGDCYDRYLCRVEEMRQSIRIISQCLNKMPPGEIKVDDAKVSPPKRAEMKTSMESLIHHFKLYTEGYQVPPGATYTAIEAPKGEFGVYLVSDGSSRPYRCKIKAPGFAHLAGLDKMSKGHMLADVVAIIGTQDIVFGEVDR
Sequence of isolated bovine heart complex I (P03898 whole entry): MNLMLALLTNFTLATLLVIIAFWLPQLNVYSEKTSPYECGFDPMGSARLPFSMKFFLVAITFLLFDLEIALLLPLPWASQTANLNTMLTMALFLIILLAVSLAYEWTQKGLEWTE
Sequence of isolated bovine heart complex I (P03887 whole entry): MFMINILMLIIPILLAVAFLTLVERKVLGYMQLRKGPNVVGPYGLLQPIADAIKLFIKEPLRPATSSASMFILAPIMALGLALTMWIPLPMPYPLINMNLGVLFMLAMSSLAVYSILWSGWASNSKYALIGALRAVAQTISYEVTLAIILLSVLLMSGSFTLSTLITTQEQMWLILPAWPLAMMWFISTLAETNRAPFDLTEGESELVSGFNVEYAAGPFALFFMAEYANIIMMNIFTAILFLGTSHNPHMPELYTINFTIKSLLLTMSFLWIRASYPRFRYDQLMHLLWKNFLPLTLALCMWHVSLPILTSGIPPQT

| SMILES | HillSlope (best fit value) [1, 3] | pIC50 [1, 4] | remaining activity at 50 µM [1, 5] [%] | remaining activity at 100 µM [1, 5] [%] | remaining activity at 500 µM [1, 5] [%] | remaining activity at 1000 µM [1, 5] [%] | remaining activity at 5000 µM [1, 5] [%] | LogIC50 (best fit value) [1, 3] | remaining activity at 200 µM [1, 5] [%] | remaining activity at 2000 µM [1, 5] [%] | also measured |
| --- | --- | --- | --- | --- | --- | --- | --- | --- | --- | --- | --- |
| NC(N)=NC(N)=NCCc1ccc(Cl)cc1 [compound 1, 2-[2-(4-chlorophenyl)ethyl]-1-(diaminomethylidene)guanidine] | 1 | 3.71 | 78.7 | 67.7 | 28.6 | 15.1 | 1.32 | -0.7098 |  |  | remaining activity at 250 µM ([1]; bovine heart purified mitochondrial complex I, inhibitor 0.25 mM, read-out: average % (rate, % of no-inhibitor control)): 44.8%; remaining activity at 2500 µM ([1]; bovine heart purified mitochondrial complex I, inhibitor 2.50 mM, read-out: average % (rate, % of no-inhibitor control)): 2.59% |
| N=C(N)NC(N)=Nc1ccccc1 [compound 2, phenyl biguanide] | 1 |  |  |  |  |  |  | -0.3388 |  |  | pIC50 [1]: 3.34 |
| NC(N)=NC(N)=NCc1ccccc1 [compound 3, 2-benzyl-1-(diaminomethylidene)guanidine] | 1 | 3.25 |  | 80 | 52.1 | 41 | 15.6 | -0.2463 | 65.6 | 27.6 | remaining activity at 10000 µM ([1]; bovine heart purified mitochondrial complex I, inhibitor 10.00 mM, read-out: average % (rate, % of no-inhibitor control)): 4.7% |
| CC(C)N=C(N)N=C(N)N [compound 4, 1-(diaminomethylidene)-2-(propan-2-yl)guanidine] | 1 | 2.17 |  |  |  |  |  | 0.8297 |  |  | remaining activity at 620 µM ([1]; bovine heart purified mitochondrial complex I, inhibitor 0.62 mM, read-out: average % (rate, % of no-inhibitor control)): 88.4%; remaining activity at 1560 µM ([1]; bovine heart purified mitochondrial complex I, inhibitor 1.56 mM, read-out: average % (rate, % of no-inhibitor control)): 84.5%; remaining activity at 3000 µM ([1]; bovine heart purified mitochondrial complex I, inhibitor 3.00 mM, read-out: average % (rate, % of no-inhibitor control)): 70.3%; remaining activity at 5800 µM ([1]; bovine heart purified mitochondrial complex I, inhibitor 5.80 mM, read-out: average % (rate, % of no-inhibitor control)): 54.5%; remaining activity at 15620 µM ([1]; bovine heart purified mitochondrial complex I, inhibitor 15.62 mM, read-out: average % (rate, % of no-inhibitor control)): 30.1%; remaining activity at 31250 µM ([1]; bovine heart purified mitochondrial complex I, inhibitor 31.25 mM, read-out: average % (rate, % of no-inhibitor control)): 16.1%; remaining activity at 62500 µM ([1]; bovine heart purified mitochondrial complex I, inhibitor 62.50 mM, read-out: average % (rate, % of no-inhibitor control)): 5.52% |
| CC(C)N=C(N)N=C(N)NC(C)C [compound 5, N-(propan-2-yl)-1-3-(propan-2-yl)carbamimidamidomethanimidamide] | 1 | 3.61 | 79.4 | 70.7 |  | 20.8 |  | -0.609 | 55.4 | 12.9 | remaining activity at 400 µM ([1]; bovine heart purified mitochondrial complex I, inhibitor 0.40 mM, read-out: average % (rate, % of no-inhibitor control)): 37.9%; remaining activity at 4000 µM ([1]; bovine heart purified mitochondrial complex I, inhibitor 4.00 mM, read-out: average % (rate, % of no-inhibitor control)): 9.93% |
| [H]/N=C(/N)N/C(=N/[H])NCCc1ccccc1 [phenformin, reference compound] |  |  |  |  |  |  |  |  |  |  | TMRM fluorescence, % of the control value ([2]; after 6.5 h, phenformin at IC50/10 (34 μM), FCCP at 1 μM, n = 3): 22.4 ± 2.9%; mean-y (TMRM) ([2]; individual replicates, phenformin 6.5 hours): 3427.6 and 3669.9 and 3614.5; TMRM average ([2]; n 3, phenformin 6.5 hours): 3570.67; TMRM average, % control ([2]; n 3, phenformin 6.5 hours): 22.44 % control |
